What was measured:
M. tuberculosis H37Rv = test: minimum inhibitory concentration (MIC) in 7H9 medium at 37° C.; assay type: cell-based; conditions: for effect of addition of clavulanate on the MIC value: absence vs presence of 2.5 μg ml^−1 clavulanate, data not shown
[1] = test system: M. tuberculosis Erdman strain; test: MIC against Erdman strain; assay type: cell-based; conditions: Mycobacterium tuberculosis, read-out: MIC value
[2] = test system: M. tuberculosis Erdman strain; test: broth microdilution in 7H9 broth, 96 well plates, M. tuberculosis growth after 1 week of incubation; assay type: cell-based; conditions: one week of incubation
BlaC = BlaC (Mycobacterium tuberculosis, UniProt P9WKD3); test: rate of hydrolysis by BlaC; assay type: biochemical, M. tuberculosis
[3] = test system: M. tuberculosis in viable but nonreplicative (NRP) state; test: Wayne model, nonreplicative (NRP2) cultures, viability by intracellular ATP and CFUs; assay type: cell-based; conditions: for reduction of viability (intracellular ATP, CFUs): combination with clavulanate, anaerobic chamber, 1 week and 2 weeks, data not shown; for kill over a 2-week exposure time: meropenem in combination with clavulanate, metronidazole as control compound
[4] = at any concentration of clavulanate (0.0.5, 1 and 2 μg/ml)

BlaC, sequence (P9WKD3 35-307): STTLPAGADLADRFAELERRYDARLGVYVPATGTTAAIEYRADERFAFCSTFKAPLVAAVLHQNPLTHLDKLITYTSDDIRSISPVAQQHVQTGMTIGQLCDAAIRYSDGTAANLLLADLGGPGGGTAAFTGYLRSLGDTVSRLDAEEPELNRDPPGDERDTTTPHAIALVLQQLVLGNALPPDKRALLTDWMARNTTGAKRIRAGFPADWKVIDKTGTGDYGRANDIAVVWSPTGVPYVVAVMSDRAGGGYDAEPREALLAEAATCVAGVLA

Structure (SMILES): C[C@@H](O)[C@H]1C(=O)N2C(C(=O)O)=C(S[C@@H]3CN[C@H](C(=O)N(C)C)C3)[C@H](C)[C@H]12 [meropenem]
- MIC value in the presence of clavulanate (M. tuberculosis H37Rv; 7H9 medium, 37° C., 2.5 μg ml^−1 clavulanate): 0.32 µg/mL
- MIC (M. tuberculosis H37Rv; Mycobacterium tuberculosis, with clavulanate, as restated): ≤ 1 µg/mL
- MIC [1]: ≤ 1 µg/mL
- M. tuberculosis growth ([2]; 1 μg/ml meropenem in combination with 1 μg/ml clavulanate): No M. tuberculosis growth
- rate of hydrolysis by BlaC (BlaC): low
- reduction of viability (intracellular ATP, CFUs) [3]: more pronounced
- kill over a 2-week exposure time [3]: more than a log kill

Structure (SMILES): CO/N=C(\C(=O)N[C@@H]1C(=O)N2C(C(=O)O)=C(COC(N)=O)CS[C@H]12)c1ccco1 [cefuroxime]
- inhibition of M. tuberculosis growth ([2]; 2 μg/ml cefuroxime and 2 μg/ml clavulanate): Modest inhibition
- reduction of viability (intracellular ATP, CFUs) [3]: effective in reducing viability

Structure (SMILES): CCN1CCN(C(=O)N[C@@H](C(=O)N[C@@H]2C(=O)N3[C@@H]2SC(C)(C)[C@@H]3C(=O)O)c2ccccc2)C(=O)C1=O [piperacillin]
- inhibition of M. tuberculosis growth [2, 4]: no inhibition

Structure (SMILES): CC1(C)S[C@@H]2[C@H](NC(=O)[C@H](N)c3ccccc3)C(=O)N2[C@H]1C(=O)O [ampicillin]
- effect of addition of clavulanate on the MIC value (M. tuberculosis H37Rv): only a modest effect

Structure (SMILES): Cc1ncc([N+](=O)[O-])n1CCO [metronidazole]
- kill over a 2-week exposure time [3]: comparable

Structure (SMILES): CC1(C)S[C@@H]2[C@H](NC(=O)[C@H](N)c3ccc(O)cc3)C(=O)N2[C@H]1C(=O)O [amoxicillin]
- effect of addition of clavulanate on the MIC value (M. tuberculosis H37Rv): only a modest effect
- inhibition of M. tuberculosis growth ([2]; 4 μg/ml of amoxicillin and 1-2 μg/ml clavulanate): Modest inhibition
- reduction of viability (intracellular ATP, CFUs) [3]: effective in reducing viability

Structure (SMILES): CC(C)(O/N=C(\C(=O)N[C@@H]1C(=O)N2C(C(=O)[O-])=C(C[n+]3ccccc3)CS[C@H]12)c1csc(N)n1)C(=O)O [ceftazidime]
- inhibition of M. tuberculosis growth [2, 4]: no inhibition
